Patent publication US20230190707A1, “COMPOSITIONS AND METHODS FOR ENHANCING CANCER IMMUNOTHERAPY” (FRED HUTCHINSON CANCER CENTER, priority 2020, published 2023)

Experiments:
[1] = system: asymmetric dimethyl arginines (ADMA); assay: ADMA levels by western blot after MS-023; format: cell-based, mouse; details: MC38 cells, 5 μM for 96 hours
Experimental: Unless otherwise specified, cell lines were treated with splicing inhibitors at the indicated concentrations for 96 hours in vitro, harvested and washed three times with PBS in excess to remove all drug, and then used for downstream analyses and/or subsequent studies, including phenotyping, RNA-seq analyses, continued growth in vitro, or tumor challenge in vivo into syngeneic animals.
(§1) Western blotting was performed as per standard techniques. Anti-RBM39 (Atlas Antibodies, Cat. HPA001591 or Bethyl laboratories, Cat. A300-291A) were used to detect RBM39 degradation. ADMA and SDMA levels were determined using antibodies from Cell Signaling Technologies (Cat. 13222S and Cat. 135225). Actin antibody (clone AC-15) was obtained from MilliporeSigma (Cat. A5441-.2ML). Densitometry of RBM39 and actin loading control was performed using ImageJ software in order to calculate RBM39 degradation IC50 values.

[2] = Peripheral blood counts after extended treatment; details: three weeks, with or without anti-PD1
Experimental: (§5) Animals were subcutaneously engrafted on bilateral flanks with tumor cells (MC38 1×10^6, B16-F10 0.5×10^6 and LLC 0.25×10^6 cells unless otherwise specified) on day 0, and treated continuously with splicing inhibitors (MS-023 50 mg/kg i.p., indisulam 25 mg/kg i.v. or vehicle) daily for 5 of 7 weekly days starting from day +3 of tumor challenge. […] Mice were weighed weekly for weight-based drug dosing.

MC38 tumors = assay: Therapeutic treatment with splicing compounds and anti-PD1, MC38 tumors; format: in vivo, mouse; details: three months following tumor implantation
Experimental: as §5

H-2D^b = H-2D^b (Mus musculus, UniProt P01899); assay: MHC I immunoprecipitation and LC-MS/MS, H-2D^b; format: cell-based
Excerpt: (§2) Peptide-MHC complexes were isolated as previously described (Abelin, J. G., et al. (2017). Mass Spectrometry Profiling of HLA-Associated Peptidomes in Mono-allelic Cells Enables More Accurate Epitope Prediction. Immunity 46, 315-326, incorporated herein by reference in its entirety), with the following modifications: anti-mouse H-2D^b (clone B22-249.R1, CedarLane laboratories, Cat. CL9001AP) or H-2K^b (clone Y-3, BioXCell Cat. BE0172) non-covalently linked to GammaBind Plus Sepharose beads were co-incubated with soluble lysates overnight. […]
(§3) Desalted, dried samples enriched for MHC peptides were resolubilized in 8 uL 0.10% TFA and 3 uL were loaded onto a packed-in-emitter 12 cm/75 um ID/3 um C18 particles column (Nikkyo Technos Co., Ltd. Japan). […] Precursor mass spectra were recorded from m/z 300-1500 m/z range at 60,000 resolution. […] MS/MS spectra were recorded at 30,000 resolution and lowest mass set at m/z 110. […] All experiments were recorded in FT-mode.
(§4) Mass spectra from all MHC immunoprecipitations were analyzed using Proteome Discoverer v2.4.1.15, with the following workflow. […]

CD8^+ T cells = assay: IFNγ ELISpot with indisulam-treated B16-F10 cells as antigen-presenting cells; format: cell-based, mouse; details: B16-F10 treated with indisulam 1 μM for 96 hours
Experimental: Such cells were then non-enzymatically harvested, washed repeatedly to remove IFNγ, and irradiated to 60 Gy from a ^60Co source to inhibit growth and further upregulate MHC I. […] IFNγ ELISpot was performed as per manufacturer's instructions (BD Biosciences, Cat. 551083). Spots were imaged and quantified on an Immunospot® analyzer (Cellular Technology Limited, Cleveland, Ohio).

LLC tumors = assay: Therapeutic treatment with indisulam and anti-PD1, LLC tumors; format: in vivo, mouse; details: syngeneic C57BL/6; indisulam 25 mg/kg i.v.; anti-PD1 250 μg
Excerpt: Mice were weighed weekly for weight-based drug dosing.

H-2K^b = H-2K^b (Mus musculus, UniProt P01901); assay: MHC I immunoprecipitation and LC-MS/MS, H-2K^b; format: cell-based
Excerpt: as §2, §3, §4

RBM39 = molecular target: T1, RBM39 (Mus musculus, UniProt Q6PFH3+Q8VH51); assay: RBM39 degradation, western blot densitometry; format: cell-based
T1 construct: endogenous in cells; host or cells: B16-F10 (also MC38, CT26, LLC)
Experimental: as §1

Sequence of H-2D^b (P01899 25-362 limits assumed): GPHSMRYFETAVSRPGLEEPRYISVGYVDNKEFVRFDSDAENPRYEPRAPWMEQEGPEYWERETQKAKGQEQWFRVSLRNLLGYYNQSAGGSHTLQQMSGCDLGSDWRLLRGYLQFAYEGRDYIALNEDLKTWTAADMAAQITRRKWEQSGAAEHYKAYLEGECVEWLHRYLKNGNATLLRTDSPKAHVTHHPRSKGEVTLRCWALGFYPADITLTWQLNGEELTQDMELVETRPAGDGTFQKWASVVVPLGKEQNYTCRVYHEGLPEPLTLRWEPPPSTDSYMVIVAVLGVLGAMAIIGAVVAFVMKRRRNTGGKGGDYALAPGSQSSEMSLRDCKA
Sequence of H-2K^b (P01901 22-369 limits assumed): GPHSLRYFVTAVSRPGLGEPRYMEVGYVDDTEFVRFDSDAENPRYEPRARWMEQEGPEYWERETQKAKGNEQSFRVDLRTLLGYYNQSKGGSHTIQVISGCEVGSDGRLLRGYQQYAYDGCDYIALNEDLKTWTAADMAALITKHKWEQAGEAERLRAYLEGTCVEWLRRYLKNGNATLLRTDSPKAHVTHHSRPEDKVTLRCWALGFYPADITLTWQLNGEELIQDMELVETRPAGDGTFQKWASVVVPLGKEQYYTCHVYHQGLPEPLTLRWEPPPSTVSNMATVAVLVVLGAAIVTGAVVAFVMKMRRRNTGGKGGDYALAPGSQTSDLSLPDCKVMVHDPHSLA

| Structure (SMILES) | asymmetric dimethyl arginines (ADMA) [1] | lymphocytes, neutrophils, or other peripheral blood counts [2] | mice alive and tumor-free (MC38 tumors) [%] | peptides only recovered from indisulam-treated samples (H-2D^b; B16-F10 cells) | bound peptides arising from mRNA isoforms specifically promoted by indisulam treatment (H-2D^b; intersection with RNA-seq) | antigen-specific T cell activation by indisulam-treated B16-F10 cells (CD8^+ T cells) | growth of LLC tumors in vivo (LLC tumors) | peptides only recovered from indisulam-treated samples (H-2K^b; B16-F10 cells) | bound peptides arising from mRNA isoforms specifically promoted by indisulam treatment (H-2K^b; intersection with RNA-seq) | RBM39 protein following drug removal (RBM39; ex vivo 1 μM for four days followed by drug washout) | DC50 (RBM39; range across B16-F10, MC38, CT26, LLC cells, 24 hours, read-out: IC50 values for RBM39 degradation) [nM] |
| --- | --- | --- | --- | --- | --- | --- | --- | --- | --- | --- | --- |
| CC(C)Oc1ccc(-c2c[nH]cc2CN(C)CCN)cc1 [MS-023] | globally reduced | negligible effects | 25 |  |  |  |  |  |  |  |  |
| NS(=O)(=O)c1ccc(S(=O)(=O)Nc2cccc3c(Cl)c[nH]c23)cc1 [indisulam] |  |  |  | 518 | 42 | triggers antigen-specific T cell activation | inhibited tumor growth | 366 | 28 | sustained suppression of RBM39 protein | 60 to 1000 |
